The values that follow come from patent publication US5036059A, “1,4-Dihydropyridine-3-carboxylate derivatives” (Nippon Shinyaku Company, Limited, priority 1984, dated 1991).

Test [1] relates to spontaneously hypertensive rats. Nature of the test: Hypotensive action in spontaneously hypertensive rats, systolic arterial blood pressure by tail plethysmography, oral. It is filed as in vivo. Here is the method:
(§1) Hypotensive action of diltiazem (which is a known hypotensive drug) measured by the same method at the doses of 3, 10 and 30 mg/kg were 0, 11.2 and 33.0%, respectively. Hypotensive action of the compound of Example 4 which is one of the most representative compounds of this invention was tested using spontaneously hypertensive rats and was compared with those of Nifedipine and Diltiazem hydrochloride. The method applied was that the drugs were orally given to the rats of which systolic arterial blood pressure were higher than 180 mmHg when it was measured plethysmographically using tail arteries. (Table 3)
Doses in mg/kg (p.o.) are as follows: *0.3 (1.0); **1.0 (3.0); ***30.

Test [2] relates to rats (with normal blood pressure). Nature of the test: Hypotensive action, mean blood pressure of femoral artery in unanesthetized normotensive rats, oral. It is filed as in vivo. The settings on record: Rattus norvegicus, read-out: % Decreases in Mean Blood Pressure [at peak effect]; for inhibition in vivo at 1 mg/kg: 1 mg/kg oral; for inhibition in vivo at 3 mg/kg: 3 mg/kg oral; for inhibition in vivo at 10 mg/kg: 10 mg/kg oral. The method, then:
Blood pressure of femoral artery of rats (with normal blood pressure) under unanesthetized condition was measured directly using a pressure tranducer.
The present invention compounds were given orally at doses of 1, 3 and 10 mg/kg, and changes in blood pressure were continuously recorded. Percent decreases of mean blood pressure at the peak effect were calculated. The maximum changes in mean blood pressure (%) were shown as "hypotensive action" (Table 2).
as §1

Another test has as its system guinea pig heart. Briefly: Coronary vasodilating action, constant pressure perfusion of isolated guinea pig heart (Langendorff). Conditions: Cavia porcellus, via coronary artery; for activation at 0.001 mg: 10^-6 gram/heart; for activation at 0.001 mg / activation at 0.0001 mg: read-out: Perfusion Increasing Rate; for activation at 0.0001 mg: 10^-7 gram/heart. The method, then: Constant pressure perfusion samples of guinea pig heart isolated by a method according to Langendorff were treated with the present invention compounds by administration via coronary artery and the effect was examined (Table 1).
With reference to coronary vasodilating action of diltiazem measured by the same method, the increasing rates in perfusion by administration of 10^-7, 10^-6 and 10^-5 gram/heart were 4, 16 and 55%, respectively.

The mark [3] stands for this setting: 0.5 hr after administration, 1.0 mg/kg p.o.
[4] abbreviates: 1 hr after administration, 1.0 mg/kg p.o.
The mark [5] stands for this setting: 2 hr after administration, 1.0 mg/kg p.o.
[6] abbreviates: 3 hr after administration, 1.0 mg/kg p.o.
[7] abbreviates: 5 hr after administration, 1.0 mg/kg p.o.
Where [8] appears, read: 8 hr after administration, 1.0 mg/kg p.o.
Where [9] appears, read: 12 hr after administration, 1.0 mg/kg p.o.
Where [10] appears, read: before administration, 1.0 mg/kg p.o.

Where a name gives a salt, the structure may show the parent alone.

On to `COc1ccc([C@@H]2Sc3ccccc3N(CCN(C)C)C(=O)[C@@H]2OC(C)=O)cc1` [Diltiazem.HCl], for which the “systolic arterial blood pressure” value in test [1] (0.5 hr after administration, 30 mg/kg p.o.) stood at 153.6 ± 5.4; in test [1] (1 hr after administration, 30 mg/kg p.o.), 141.8 ± 10.8; in test [1] (2 hr after administration, 30 mg/kg p.o.), 156.2 ± 8.8; in test [1] (3 hr after administration, 30 mg/kg p.o.), 170.5 ± 4.8; in test [1] (5 hr after administration, 30 mg/kg p.o.), 183.2 ± 2.8; in test [1] (8 hr after administration, 30 mg/kg p.o.), 189.3 ± 4.6. Further, the “systolic arterial blood pressure” value in test [1] (12 hr after administration, 30 mg/kg p.o.) came to 188.5 ± 2.0; in test [1] (before administration, 30 mg/kg p.o.) it was 191.2 ± 5.4.

Consider `COC(=O)C1=C(C)NC(C)=C(P2(=O)OCCCO2)C1c1ccccc1[N+](=O)[O-]` (centres unmarked) [Example 4, Methyl 2,6-dimethyl-4-(2-nitrophenyl)-5-(2-oxo-1,3,2-dioxaphosphorinan-2-yl)-1,4-dihydropyridine-3-carboxylate], for which the “systolic arterial blood pressure” value is recorded as 126.0 ± 3.9 in test [1] (0.5 hr after administration, 0.3 mg/kg p.o.); 87.7 ± 4.9 in test [1] (setting [3]); 124.0 ± 3.3 in test [1] (1 hr after administration, 0.3 mg/kg p.o.); 90.2 ± 6.3 in test [1] (setting [4]); 134.2 ± 4.3 in test [1] (2 hr after administration, 0.3 mg/kg p.o.); 103.2 ± 7.3 in test [1] (setting [5]). For the same compound, the “systolic arterial blood pressure” value is on record as 152.5 ± 4.0 in test [1] (3 hr after administration, 0.3 mg/kg p.o.); 133.3 ± 5.3 in test [1] (setting [6]); 156.8 ± 8.3 in test [1] (5 hr after administration, 0.3 mg/kg p.o.); 150.7 ± 7.7 in test [1] (setting [7]); 158.3 ± 7.2 in test [1] (8 hr after administration, 0.3 mg/kg p.o.); 152.8 ± 6.5 in test [1] (setting [8]). In addition, the “systolic arterial blood pressure” value is given as 170.7 ± 5.4 in test [1] (12 hr after administration, 0.3 mg/kg p.o.); 165.3 ± 6.1 in test [1] (setting [9]); 195.3 ± 5.9 in test [1] (24 hr after administration, 0.3 mg/kg p.o.); 187.7 ± 7.5 in test [1] (24 hr after administration, 1.0 mg/kg p.o.); 185.2 ± 5.4 in test [1] (before administration, 0.3 mg/kg p.o.); 193.0 ± 6.5 in test [1] (setting [10]). The inhibition in vivo at 1 mg/kg in test [2] was found to be 42.6%. Also, the inhibition in vivo at 3 mg/kg in test [2] turned out to be 39%. For the same compound, the inhibition in vivo at 10 mg/kg in test [2] came out at 41.9%.

For the compound `CC1=C(C(=O)OCCN(C)Cc2ccccc2)C(c2ccccc2C(F)(F)F)C(P2(=O)OCCCO2)=C(C)N1` (centres unmarked) [Example 52], in the test on guinea pig heart, the activation at 0.001 mg was 62% and the activation at 0.0001 mg is 10%. For the same compound, in test [2], the inhibition in vivo at 1 mg/kg came to 18.4%, the inhibition in vivo at 3 mg/kg was 37.2% and the inhibition in vivo at 10 mg/kg came out at 42.8%.

Take `COC(=O)C1=C(C)NC(C)=C(P2(=O)OCCCO2)C1c1ccccc1OC(F)F` (centres unmarked) [Example 53, Methyl 4-(2-difluoromethoxyphenyl)-2,6-dimethyl-5-(2-oxo-1,3,2-dioxaphosphorinan-2-yl)-1,4-dihydropyridine-3-carboxylate]: in the test with guinea pig heart, the activation at 0.001 mg is 25% and the activation at 0.0001 mg stood at 16%. Besides, in test [2], the inhibition in vivo at 1 mg/kg worked out at 24.5%, the inhibition in vivo at 3 mg/kg was 45.4% and the inhibition in vivo at 10 mg/kg was 49.7%.

On to `CC1=C(C(=O)OCCN(C)Cc2ccccc2)C(c2cccc(Cl)c2Cl)C(P2(=O)OCC(C)(C)CO2)=C(C)N1` (centres unmarked) [Example 59, 2-(N-Benzyl-N-methylamino)-ethyl 4-(2,3-dichlorophenyl)-2,6-dimethyl-5-(5,5-dimethyl-2-oxo-1,3,2-dioxaphosphorinan-2-yl)-1,4-dihydropyridine-3-carboxylate], for which, in the test on guinea pig heart, the activation at 0.001 mg worked out at 33% and the activation at 0.0001 mg is 24%. Moreover, in test [2], the inhibition in vivo at 1 mg/kg was 7.1%, the inhibition in vivo at 3 mg/kg was 29.1% and the inhibition in vivo at 10 mg/kg worked out at 35.1%.

As to `CC1=C(C(=O)OCCN(C)Cc2ccccc2)C(c2ccccc2C(F)(F)F)C(P2(=O)OCC(C)(C)CO2)=C(C)N1` (centres unmarked) [Example 62, 2-(N-Benzyl-N-methylamino)-ethyl 2,6-dimethyl-5-(5,5-dimethyl-2-oxo-1,3,2-dioxaphosphorinan-2-yl)-4-(2-trifluoromethylphenyl)-1,4-dihydropyridine-3-carboxylate], in the test on guinea pig heart, the activation at 0.001 mg stood at 70% and the activation at 0.0001 mg was 19%. In test [2], the inhibition in vivo at 1 mg/kg stood at 10.6%, the inhibition in vivo at 3 mg/kg is 37.4% and the inhibition in vivo at 10 mg/kg was 48.3%.

With `COC(=O)C1=C(C)NC(C)=C(C(=O)OC)C1c1ccccc1[N+](=O)[O-]` [Nifedipine, dimethyl 2,6-dimethyl-4-(2-nitrophenyl)-1,4-dihydropyridine-3,5-dicarboxylate], the “systolic arterial blood pressure” value in test [1] (setting [3]) is 139.3 ± 6.9; in test [1] (0.5 hr after administration, 3.0 mg/kg p.o.), 112.8 ± 6.0; in test [1] (setting [4]) it was 161.3 ± 4.1; in test [1] (1 hr after administration, 3.0 mg/kg p.o.) it was 125.8 ± 4.4; in test [1] (setting [5]) it was 183.5 ± 10.0; in test [1] (2 hr after administration, 3.0 mg/kg p.o.) it was 148.7 ± 9.9. The “systolic arterial blood pressure” value in test [1] (setting [6]) was 188.3 ± 5.8; in test [1] (3 hr after administration, 3.0 mg/kg p.o.), 176.8 ± 2.6; in test [1] (setting [7]), 187.2 ± 5.3; in test [1] (5 hr after administration, 3.0 mg/kg p.o.), 183.8 ± 6.0; in test [1] (setting [8]), 190.9 ± 4.8; in test [1] (8 hr after administration, 3.0 mg/kg p.o.), 188.5 ± 2.9. For the same compound, the “systolic arterial blood pressure” value in test [1] (setting [9]) turned out to be 190.3 ± 5.5; in test [1] (12 hr after administration, 3.0 mg/kg p.o.), 190.0 ± 7.0; in test [1] (setting [10]), 194.8 ± 2.1; in test [1] (before administration, 3.0 mg/kg p.o.), 189.0 ± 5.1.

Regarding `COc1ccc([C@@H]2Sc3ccccc3N(CCN(C)C)C(=O)[C@@H]2OC(C)=O)cc1` [diltiazem, reference compound], the activation at 1e-05 g/heart, 1e-05 g/heart with guinea pig heart (10^-5 gram/heart, read-out: increasing rate in perfusion) came to 55%. Also, in the test on guinea pig heart, the activation at 0.001 mg is 16% and the activation at 0.0001 mg amounted to 4%. In test [2], the inhibition in vivo at 3 mg/kg amounted to 0% and the inhibition in vivo at 10 mg/kg turned out to be 11.2%. Further, the inhibition in vivo at 30 mg/kg in test [2] (30 mg/kg oral) amounted to 33%.
